Measured values as given in ChEMBL document CHEMBL5543131, “Discovery of Highly Potent Solute Carrier 13 Member 5 (SLC13A5) Inhibitors for the Treatment of Hyperlipidemia” (J Med Chem, 2024).
Activity calls are given as the source filed them. The calls are words filed in the database; no cut-off is given here.

Experiments:
HepG2 [1] = assay: Lipid lowering effect on PCN-induced lipid accumulation in human HepG2 cells assessed as decrease in ACLY mRNA expression level at 3 to 30 uM by RT-qPCR analysis; format: functional, cell-based; conditions: dose 3-30 µM
Mus musculus [2] = assay: Lipid lowering activity in starvation-induced hyperlipidemic male C57BL/6J mouse model assessed as decrease in NEFA level in plasma at 10 to 30 mg/kg, ip starved for 48 hrs followed by compound administration and measured after 2 hrs; format: functional, organism-based; conditions: dose 10-30 mg/kg
[3] = target: Na(+)/citrate cotransporter (Homo sapiens) (UniProt Q86YT5); assay: Competitive inhibition of SLC13A5 (unknown origin) assessed as increase in Km with constant Vmax upto 50 uM
AML12 [4] = assay: Lipid lowering effect on PCN-induced lipid accumulation in mouse AML12 cells assessed as decrease in ACLY mRNA expression level at 3 to 30 uM preincubated with compound for 30 mins followed by PCN addition and measured after 24 hrs by RT-qPCR analysis; format: functional, cell-based; conditions: dose 3-30 µM, time 24.5 hrs
AML12 [5] = assay: Lipid lowering effect on PCN-induced lipid accumulation in mouse AML12 cells assessed as decrease in ACC1 mRNA expression level at 3 to 30 uM preincubated with compound for 30 mins followed by PCN addition and measured after 24 hrs by RT-qPCR analysis; format: functional, cell-based; conditions: dose 3-30 µM, time 24.5 hrs
AML12 [6] = assay: Lipid lowering effect on PCN-induced lipid accumulation in mouse AML12 cells assessed as decrease in triglyceride level preincubated with compound for 30 mins followed by PCN addition and measured after 24 hrs; format: functional, cell-based; conditions: dose 3-30 µM, time 24.5 hrs
AML12 [7] = assay: Lipid lowering effect on PCN-induced lipid accumulation in mouse AML12 cells assessed as decrease in HMGCR mRNA expression level at 3 to 30 uM preincubated with compound for 30 mins followed by PCN addition and measured after 24 hrs by RT-qPCR analysis; format: functional, cell-based; conditions: dose 3-30 µM, time 24.5 hrs
Hepatocyte [8] = assay: Lipid lowering effect on PCN-induced lipid accumulation in mouse Primary hepatocyte assessed as decrease in intracellular triglyceride level; format: functional, cell-based; conditions: dose 3-30 µM
AML12 [9] = assay: Effect on lipid accumulation in oleic and palmitic acid induced mouse AML12 cells assessed as decrease in total cholesterol level; format: functional, cell-based; conditions: dose 3-30 µM
Mus musculus [10] = assay: Effect on SLC13A5 mRNA expression in PCN-induced hyperlipidemic male C57BL/6J mouse model at 10 to 30 mg/kg, IG preadministered with compound for 15 to 30 mins followed by PCN administration and measured after 7 days by RT-qPCR analysis; format: functional, organism-based; conditions: dose 10-30 mg/kg, time 15-10110 min
HepG2 [11] = assay: Lipid lowering effect on PCN-induced lipid accumulation in human HepG2 cells assessed as decrease in FASN mRNA expression level at 3 to 30 uM by RT-qPCR analysis; format: functional, cell-based; conditions: dose 3-30 µM
Mus musculus [12] = assay: Lipid lowering activity in starvation-induced hyperlipidemic male C57BL/6J mouse model assessed as decrease in LDL to HDL cholesterol ratio at 10 to 30 mg/kg, po starved for 48 hrs followed by compound administration and measured after 2 hrs; format: functional, organism-based; conditions: dose 10-30 mg/kg
HepG2 [13] = assay: Lipid lowering effect on oleic and palmitic acid induced lipid accumulation in human HepG2 cells assessed as decrease in intracellular total cholesterol level; format: functional, cell-based; conditions: dose 3-30 µM
Mus musculus [14] = assay: Lipid lowering activity in PCN-induced hyperlipidemic male C57BL/6J mouse model assessed as decrease in liver total cholesterol level at 10 to 30 mg/kg, IG preadministered with compound for 15 to 30 mins followed by PCN administration and measured after 7 days; format: functional, organism-based; conditions: dose 10-30 mg/kg, time 15-10110 min
Hepatocyte [15] = assay: Lipid lowering effect on PCN-induced lipid accumulation in mouse Primary hepatocyte assessed as decrease in FASN mRNA expression level at 3 to 30 uM by RT-qPCR analysis; format: functional, cell-based; conditions: dose 3-30 µM
AML12 [16] = assay: Effect on SCL13A5 mRNA expression in oleic acid and palmitic acid induced mouse AML12 cells at 3 to 30 uM by RT-qPCR analysis; format: functional, cell-based; conditions: dose 3-30 µM
AML12 [17] = assay: Effect on lipid accumulation in oleic and palmitic acid induced mouse AML12 cells assessed as decrease in triglyceride level; format: functional, cell-based; conditions: dose 3-30 µM
Mus musculus [18] = assay: Lipid lowering activity in PCN-induced hyperlipidemic male C57BL/6J mouse model assessed as decrease in ACC1 mRNA expression level preadministered intragastrically with compound for 15 to 30 mins followed by PCN administration and measured after 7 days by RT-qPCR analysis; format: functional, organism-based; conditions: dose 10-30 mg/kg, route ig, time 15-10110 min
Mus musculus [19] = assay: Lipid lowering activity in starvation-induced hyperlipidemic male C57BL/6J mouse model assessed as decrease in number of lipid droplets in liver starved for 48 hrs followed by intraperitoneal administration of compound and measured after 2 hrs by Hematoxylin and eosin staining based analysis; format: functional, organism-based; conditions: dose 10-30 mg/kg, route ip
Hepatocyte [20] = assay: Lipid lowering effect on PCN-induced lipid accumulation in mouse Primary hepatocyte assessed as decrease in HMGCR mRNA expression level at 3 to 30 uM by RT-qPCR analysis; format: functional, cell-based; conditions: dose 3-30 µM
AML12 [21] = assay: Downregulation of ACLY mRNA expression in oleic and palmitic acid induced mouse AML12 cells by RT-qPCR analysis; format: functional, cell-based; conditions: dose 3-30 µM
Mus musculus [22] = assay: Lipid lowering activity in starvation-induced hyperlipidemic male C57BL/6J mouse model assessed as decrease in triglyceride level in liver at 10 to 30 mg/kg, ip starved for 48 hrs followed by compound administration and measured after 2 hrs; format: functional, organism-based; conditions: dose 10-30 mg/kg
Mus musculus [23] = assay: Lipid lowering activity in PCN-induced hyperlipidemic male C57BL/6J mouse model assessed as decrease in plasma total cholesterol level at 10 to 30 mg/kg, IG preadministered with compound for 15 to 30 mins followed by PCN administration and measured after 7 days; format: functional, organism-based; conditions: dose 10-30 mg/kg, time 15-10110 min
Mus musculus [24] = assay: In vivo inhibition of SLC13A5 in starvation-induced hyperlipidemic male C57BL/6J mouse model assessed as increase in plasma citrate level at 30 mg/kg, ip starved for 48 hrs followed by compound administration and measured after 2 hrs; format: functional, organism-based
AML12 [25] = assay: Lipid lowering effect on PCN-induced lipid accumulation in mouse AML12 cells assessed as decrease in total cholesterol level preincubated with compound for 30 mins followed by PCN addition and measured after 24 hrs; format: functional, cell-based; conditions: dose 3-30 µM, time 24.5 hrs
Mus musculus [26] = assay: In vivo inhibition of SLC13A5 in starvation-induced hyperlipidemic male C57BL/6J mouse model assessed as decrease in liver citrate level at 30 mg/kg, ip starved for 48 hrs followed by compound administration and measured after 2 hrs; format: functional, organism-based
Hepatocyte [27] = assay: Lipid lowering effect on PCN-induced lipid accumulation in mouse Primary hepatocyte assessed as decrease in ACC1 mRNA expression level at 3 to 30 uM by RT-qPCR analysis; format: functional, cell-based; conditions: dose 3-30 µM
Mus musculus [28] = assay: Lipid lowering activity in starvation-induced hyperlipidemic male C57BL/6J mouse model assessed as decrease in size of lipid droplets in liver starved for 48 hrs followed by intraperitoneal administration of compound and measured after 2 hrs by Hematoxylin and eosin staining based analysis; format: functional, organism-based; conditions: dose 10-30 mg/kg, route ip
Mus musculus [29] = assay: Lipid lowering activity in PCN-induced hyperlipidemic male C57BL/6J mouse model assessed as decrease in HMGCR mRNA expression level preadministered intragastrically with compound for 15 to 30 mins followed by PCN administration and measured after 7 days by RT-qPCR analysis; format: functional, organism-based; conditions: dose 10-30 mg/kg, route ig, time 15-10110 min
Mus musculus [30] = assay: Lipid lowering activity in PCN-induced hyperlipidemic male C57BL/6J mouse model assessed as decrease in plasma triglyceride level at 10 to 30 mg/kg, IG preadministered with compound for 15 to 30 mins followed by PCN administration and measured after 7 days; format: functional, organism-based; conditions: dose 10-30 mg/kg, time 15-10110 min

Sequence of Na(+)/citrate cotransporter (Homo sapiens) (Q86YT5 whole entry, looked up): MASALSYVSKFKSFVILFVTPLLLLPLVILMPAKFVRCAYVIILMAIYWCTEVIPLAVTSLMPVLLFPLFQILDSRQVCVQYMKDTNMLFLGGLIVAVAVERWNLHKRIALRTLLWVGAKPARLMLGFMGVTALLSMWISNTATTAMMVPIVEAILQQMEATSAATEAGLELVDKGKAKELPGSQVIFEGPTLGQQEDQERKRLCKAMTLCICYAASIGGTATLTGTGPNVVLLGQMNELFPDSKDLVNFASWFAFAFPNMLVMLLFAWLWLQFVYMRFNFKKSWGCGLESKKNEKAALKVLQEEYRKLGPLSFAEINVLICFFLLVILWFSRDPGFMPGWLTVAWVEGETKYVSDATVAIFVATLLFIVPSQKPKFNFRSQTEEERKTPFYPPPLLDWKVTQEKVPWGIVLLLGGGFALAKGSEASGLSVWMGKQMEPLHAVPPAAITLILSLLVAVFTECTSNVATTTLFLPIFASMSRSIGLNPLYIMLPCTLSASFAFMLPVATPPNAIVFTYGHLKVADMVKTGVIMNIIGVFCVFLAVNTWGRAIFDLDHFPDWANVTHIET

O=C(O)CC(O)(CCc1ccc(-c2ccccc2)cc1)C(=O)O (stereo not given)
Activity (HepG2 [1]): Active | Activity (Mus musculus [2]): Active | inhibition [3]: Active | Activity (AML12 [4]): Active | Activity (AML12 [5]): Active | Activity (AML12 [6]): Dose-Dependent Effect | Activity (AML12 [7]): Active | Activity (Hepatocyte [8]): Dose-Dependent Effect | Activity (AML12 [9]): Dose-Dependent Effect | Activity (Mus musculus [10]): inactive | Activity (HepG2 [11]): Active | Activity (Mus musculus [12]): Active | Activity (HepG2 [13]): Dose-Dependent Effect | Activity (Mus musculus [14]): Active | Activity (Hepatocyte [15]): Active | Activity (AML12 [16]): inactive | Activity (AML12 [17]): Dose-Dependent Effect | Activity (Mus musculus [18]): Dose-Dependent Effect | Activity (Mus musculus [19]): Dose-Dependent Effect | Activity (Hepatocyte [20]): Active | Activity (AML12 [21]): Dose-Dependent Effect | Activity (Mus musculus [22]): Active | Activity (Mus musculus [23]): Active | inhibition (Mus musculus [24]): Active | Activity (AML12 [25]): Dose-Dependent Effect | inhibition (Mus musculus [26]): Active | Activity (Hepatocyte [27]): Active | Activity (Mus musculus [28]): Dose-Dependent Effect | Activity (Mus musculus [29]): Dose-Dependent Effect | Activity (Mus musculus [30]): Active
